In ChEMBL document CHEMBL4477208, “Discovery and Rational Design of Pteridin-7(8H)-one-Based Inhibitors Targeting FMS-like Tyrosine Kinase 3 (FLT3) and Its Mutants” (J Med Chem, 2016):

How the values were obtained:
[1] = Tmax in overnight fasted Sprague-Dawley rat plasma at 10 mg/kg administered via oral gavage up to 24 hrs by LC-MS/MS analysis; format: ADME, organism-based
[2] = test system: MV4-11; experiment: Induction of apoptosis in human MV4-11 cells assessed as necrotic cells at 1 nM after 48 hrs by annexin V/propidium iodide staining based FACS analysis (reference value: 0.05%); format: functional
[3] = Clearance in overnight fasted Sprague-Dawley rat plasma at 1 mg/kg, iv up to 24 hrs by LC-MS/MS analysis; format: ADME, organism-based
[4] = test system: RS4-11; experiment: Antiproliferative activity against human RS4:11 cells after 72 hrs by MTT assay; format: functional, cell-based; conditions: RS4-11, 72 h
[5] = test system: NCI-H187; experiment: Antiproliferative activity against human NCI-H187 cells after 72 hrs by MTT assay; format: functional, cell-based; conditions: NCI-H187, 72 h
[6] = test system: MV4-11; experiment: Induction of apoptosis in human MV4-11 cells assessed as dead cells after 48 hrs by annexin V/propidium iodide staining based FACS analysis; format: functional, cell-based
[7] = target: Receptor-type tyrosine-protein kinase FLT3 (Homo sapiens, UniProt P36888, D835Y); experiment: Binding affinity to human partial length FLT3 D835Y mutant (580 to 969 residues) expressed in bacterial expression system after 1 hr
[8] = test system: MV4-11; experiment: Induction of apoptosis in human MV4-11 cells assessed as necrotic cells at 1000 nM after 48 hrs by annexin V/propidium iodide staining based FACS analysis (reference value: 0.05%); format: functional
[9] = test system: MV4-11; experiment: Cell cycle arrest in human MV4-11 cells assessed as accumulation at G0/G1 phase at 100 nM after 48 hrs by PI/RNase staining based FACS analysis (reference value: 69.55%); format: functional
[10] = target: Dual specificity mitogen-activated protein kinase kinase 5 (Homo sapiens) (UniProt Q13163); experiment: Inhibition of human MEK5 expressed in mammalian system assessed as remaining enzyme activity at 1 uM relative to untreated control
Sequence of Dual specificity mitogen-activated protein kinase kinase 5 (Homo sapiens) (Q13163 whole entry): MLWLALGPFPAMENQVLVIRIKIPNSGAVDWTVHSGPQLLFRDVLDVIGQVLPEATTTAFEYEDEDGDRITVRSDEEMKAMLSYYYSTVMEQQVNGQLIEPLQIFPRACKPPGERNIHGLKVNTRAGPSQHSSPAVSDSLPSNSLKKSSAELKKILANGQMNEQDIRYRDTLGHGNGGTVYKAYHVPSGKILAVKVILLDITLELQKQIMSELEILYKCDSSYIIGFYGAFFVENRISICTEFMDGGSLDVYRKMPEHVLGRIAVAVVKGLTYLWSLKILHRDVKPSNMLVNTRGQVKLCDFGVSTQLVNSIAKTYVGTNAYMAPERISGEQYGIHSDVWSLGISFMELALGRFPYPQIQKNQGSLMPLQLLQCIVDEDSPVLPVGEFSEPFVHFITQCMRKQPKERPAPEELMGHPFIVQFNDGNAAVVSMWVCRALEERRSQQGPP

[11] = test system: MOLM-13; experiment: Antiproliferative activity against human MOLM13 cells harboring FLT3-ITD mutant after 72 hrs by MTT assay; format: functional, cell-based; conditions: MOLM-13, 72 h
[12] = target: Interleukin-1 receptor-associated kinase 1 (Homo sapiens) (UniProt P51617); experiment: Inhibition of human IRAK1 expressed in mammalian system assessed as remaining enzyme activity at 1 uM relative to untreated control
Sequence of Interleukin-1 receptor-associated kinase 1 (Homo sapiens) (P51617 whole entry, looked up): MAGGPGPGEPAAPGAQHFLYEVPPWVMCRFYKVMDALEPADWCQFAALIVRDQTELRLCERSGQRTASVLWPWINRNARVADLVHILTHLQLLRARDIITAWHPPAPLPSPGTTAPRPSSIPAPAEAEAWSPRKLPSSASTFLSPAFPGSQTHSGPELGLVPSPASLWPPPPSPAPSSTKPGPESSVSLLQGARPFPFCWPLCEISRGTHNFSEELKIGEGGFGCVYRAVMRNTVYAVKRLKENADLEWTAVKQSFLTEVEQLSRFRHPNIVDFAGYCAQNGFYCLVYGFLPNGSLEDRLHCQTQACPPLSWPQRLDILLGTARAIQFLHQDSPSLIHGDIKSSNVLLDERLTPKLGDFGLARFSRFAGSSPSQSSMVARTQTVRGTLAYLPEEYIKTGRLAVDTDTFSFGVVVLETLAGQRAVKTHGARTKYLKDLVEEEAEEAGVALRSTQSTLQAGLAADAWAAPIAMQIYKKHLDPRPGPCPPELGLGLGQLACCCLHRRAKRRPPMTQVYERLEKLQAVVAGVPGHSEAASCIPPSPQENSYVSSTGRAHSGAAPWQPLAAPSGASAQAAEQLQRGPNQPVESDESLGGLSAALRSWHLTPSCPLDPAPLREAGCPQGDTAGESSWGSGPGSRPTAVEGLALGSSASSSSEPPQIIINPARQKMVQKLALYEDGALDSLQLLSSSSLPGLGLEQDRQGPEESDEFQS

**Q.** Which Tmax [1] does the source give for `Cc1cc(Nc2ncc3ncc(=O)n(-c4ccc(N)cc4)c3n2)ccc1N1CCN(C)CC1` here?
**A.** Its Tmax is 2.17 h.

**Q.** What about the Activity [2] of the same compound?
**A.** Its Activity is 0.1%.

**Q.** And the clearance [3]?
**A.** The clearance was 142 mL/min/kg.

**Q.** What about the IC50 [4] of the same compound?
**A.** Its IC50 is 925 nM.

**Q.** And the IC50 [5]?
**A.** Its IC50 is > 10000 nM.

**Q.** What about the Activity [6] of the same compound?
**A.** The Activity was “Dose-dependent effect”.

**Q.** And the Kd [7]?
**A.** Its Kd is 2 nM.

**Q.** What about the Activity [8] of the same compound?
**A.** The Activity was 0.05%.

**Q.** What about the Activity [9] of the same compound?
**A.** Its Activity is 85.92%.

**Q.** What about the Activity [10] of the same compound?
**A.** The Activity was < 1%.

**Q.** And the IC50 [11]?
**A.** Its IC50 is 32.9 nM.

**Q.** And the Activity [12]?
**A.** Its Activity is < 1%.
